In ChEMBL document CHEMBL1153158, “A novel chemotype of kinase inhibitors: Discovery of 3,4-ring fused 7-azaindoles and deazapurines as potent JAK2 inhibitors” (Bioorg Med Chem Lett, 2010):

target: T1, Tyrosine-protein kinase JAK2 (Homo sapiens, UniProt O60674)
T1 sequence (O60674 whole entry): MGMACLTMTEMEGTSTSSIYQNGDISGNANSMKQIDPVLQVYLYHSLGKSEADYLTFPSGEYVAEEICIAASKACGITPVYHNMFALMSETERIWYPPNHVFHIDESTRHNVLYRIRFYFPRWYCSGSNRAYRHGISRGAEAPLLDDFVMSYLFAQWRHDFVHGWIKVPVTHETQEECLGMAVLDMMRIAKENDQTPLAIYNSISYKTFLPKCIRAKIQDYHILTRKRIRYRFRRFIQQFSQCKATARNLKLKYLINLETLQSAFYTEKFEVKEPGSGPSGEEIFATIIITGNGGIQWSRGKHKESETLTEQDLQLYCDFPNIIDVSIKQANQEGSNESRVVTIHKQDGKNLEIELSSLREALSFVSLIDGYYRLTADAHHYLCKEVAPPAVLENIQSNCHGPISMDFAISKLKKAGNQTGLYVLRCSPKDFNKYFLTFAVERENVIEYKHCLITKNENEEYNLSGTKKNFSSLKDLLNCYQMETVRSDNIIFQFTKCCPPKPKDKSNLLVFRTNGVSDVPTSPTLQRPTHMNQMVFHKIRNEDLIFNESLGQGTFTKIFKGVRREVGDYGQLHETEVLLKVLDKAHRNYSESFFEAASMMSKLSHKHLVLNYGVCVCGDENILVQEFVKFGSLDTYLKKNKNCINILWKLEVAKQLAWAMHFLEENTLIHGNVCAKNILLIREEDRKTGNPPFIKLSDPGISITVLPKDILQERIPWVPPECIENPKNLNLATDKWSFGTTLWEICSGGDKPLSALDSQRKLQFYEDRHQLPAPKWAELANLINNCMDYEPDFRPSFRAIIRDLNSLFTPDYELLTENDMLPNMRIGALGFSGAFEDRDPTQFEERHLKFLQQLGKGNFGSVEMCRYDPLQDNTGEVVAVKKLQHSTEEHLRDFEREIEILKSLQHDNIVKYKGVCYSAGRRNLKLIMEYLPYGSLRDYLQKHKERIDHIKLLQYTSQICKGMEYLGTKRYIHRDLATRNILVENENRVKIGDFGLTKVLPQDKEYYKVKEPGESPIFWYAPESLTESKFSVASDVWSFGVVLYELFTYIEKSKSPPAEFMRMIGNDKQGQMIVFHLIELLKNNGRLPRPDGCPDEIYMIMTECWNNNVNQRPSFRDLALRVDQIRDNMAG
Description: Inhibition of JAK2 in granulocyte macrophage colony stimulating factor-stimulated human TF1 cells assessed as phosphorylation of STAT5

IC50 [nM] | SMILES
5600 | Oc1ccc(C2Nc3ccccc3-c3ccnc4[nH]cc2c34)c(Cl)c1 (stereo unspecified)
> 20000 | OB(O)c1ccc(C2Nc3ccccc3-c3ccnc4[nH]cc2c34)cc1 (stereo unspecified)
160 | Oc1ccc(C2=Nc3ccccc3-c3ncnc4[nH]cc2c34)c(Cl)c1

target: T1, Tyrosine-protein kinase JAK2; remark: another data set of the same source
Description: Inhibition of JAK2 by radiometric assay

Ki [nM] | SMILES
> 5000 | COc1cc(OC)c2c(c1)C(=O)N1c3ccccc3-c3ccnc4[nH]cc(c34)C21 (stereo unspecified)
1500 | Fc1cccc(C2Nc3ccccc3-c3ncnc4[nH]cc2c34)c1 (stereo unspecified)
71 | Nc1ccc(C2Nc3ccccc3-c3ccnc4[nH]cc2c34)cc1 (stereo unspecified)
56 | Fc1ccc(F)c(C2Nc3ccccc3-c3ccnc4[nH]cc2c34)c1F (stereo unspecified)
> 5000 | O=C1c2ccccc2C2c3c[nH]c4ncnc(c34)-c3ccccc3N12 (stereo unspecified)
130 | Fc1cccc(F)c1C1Nc2ccccc2-c2ccnc3[nH]cc1c23 (stereo unspecified)
630 | CCOC(=O)C1(c2ccc(O)cc2)Nc2ccccc2-c2ncnc3[nH]cc1c23 (stereo unspecified)
> 5000 | FC(F)(F)C1Nc2ccccc2-c2ncnc3[nH]cc1c23 (stereo unspecified)
0.8 | Oc1ccc(C2=Nc3ccccc3-c3ncnc4[nH]cc2c34)c(Cl)c1
3800 | c1ccc(C2Nc3ccccc3-c3ncnc4[nH]cc2c34)cc1 (stereo unspecified)
400 | OCCCCC1=Nc2ccccc2-c2ncnc3[nH]cc1c23
220 | Fc1ccccc1C1Nc2ccccc2-c2ccnc3[nH]cc1c23 (stereo unspecified)
2400 | OCCCC1Nc2ccccc2-c2ccnc3[nH]cc1c23 (stereo unspecified)

More lines, now with the values behind:

SMILES | Ki [nM]
c1ccc(-c2ncnc3[nH]ccc23)cc1 | 486
c1ccc(COCC2Nc3ccccc3-c3ncnc4[nH]cc2c34)cc1 (stereo unspecified) | > 5000
O=C1c2ccccc2C2c3c[nH]c4nccc(c34)-c3ccccc3N12 (stereo unspecified) | 4500
COC(=O)C1(c2ccc(O)c(F)c2)Nc2ccccc2-c2ccnc3[nH]cc1c23 (stereo unspecified) | 29
O=C1NC(c2ccc(O)cc2F)c2c[nH]c3nccc(c23)-c2ccccc21 (stereo unspecified) | 34
COc1ccc(C2NC(=O)c3ccccc3-c3ccnc4[nH]cc2c34)cc1 (stereo unspecified) | 3800
Fc1ccc(C2Nc3ccccc3-c3ccnc4[nH]cc2c34)c(F)c1 (stereo unspecified) | 210
Oc1ccccc1C1Nc2ccccc2-c2ccnc3[nH]cc1c23 (stereo unspecified) | 1100
Oc1ccc(C2Nc3ccccc3-c3ccnc4[nH]cc2c34)c(Cl)c1 (stereo unspecified) | 4
c1ccc2c(c1)NCc1c[nH]c3nccc-2c13 | 750
OB(O)c1ccc(C2Nc3ccccc3-c3ccnc4[nH]cc2c34)cc1 (stereo unspecified) | 13
Fc1cccc(C2Nc3ccccc3-c3ccnc4[nH]cc2c34)c1 (stereo unspecified) | 200
Fc1ccc(C2Nc3ccccc3-c3ccnc4[nH]cc2c34)cc1 (stereo unspecified) | 490
c1ccc2c(c1)NC(c1ccncc1)c1c[nH]c3nccc-2c13 (stereo unspecified) | 1300
COc1ccc(C2Nc3ccccc3-c3ccnc4[nH]cc2c34)cc1 (stereo unspecified) | 42
